The results in this text go back to patent US6248739A, “Quinolinecarboxamides as antiviral agents” (Pharmacia & Upjohn Company, priority 1999, dated 2001).

Where a name gives a salt, the structure may show the parent alone. Bounds are passed on as bounds.

For one experiment, the target named is T1, HCMV polymerase (Human cytomegalovirus, UniProt P08546).
T1 construct: made in house; host or cells: recombinant baculovirus-infected SF-9 insect cells
T1 sequence (P08546 whole entry): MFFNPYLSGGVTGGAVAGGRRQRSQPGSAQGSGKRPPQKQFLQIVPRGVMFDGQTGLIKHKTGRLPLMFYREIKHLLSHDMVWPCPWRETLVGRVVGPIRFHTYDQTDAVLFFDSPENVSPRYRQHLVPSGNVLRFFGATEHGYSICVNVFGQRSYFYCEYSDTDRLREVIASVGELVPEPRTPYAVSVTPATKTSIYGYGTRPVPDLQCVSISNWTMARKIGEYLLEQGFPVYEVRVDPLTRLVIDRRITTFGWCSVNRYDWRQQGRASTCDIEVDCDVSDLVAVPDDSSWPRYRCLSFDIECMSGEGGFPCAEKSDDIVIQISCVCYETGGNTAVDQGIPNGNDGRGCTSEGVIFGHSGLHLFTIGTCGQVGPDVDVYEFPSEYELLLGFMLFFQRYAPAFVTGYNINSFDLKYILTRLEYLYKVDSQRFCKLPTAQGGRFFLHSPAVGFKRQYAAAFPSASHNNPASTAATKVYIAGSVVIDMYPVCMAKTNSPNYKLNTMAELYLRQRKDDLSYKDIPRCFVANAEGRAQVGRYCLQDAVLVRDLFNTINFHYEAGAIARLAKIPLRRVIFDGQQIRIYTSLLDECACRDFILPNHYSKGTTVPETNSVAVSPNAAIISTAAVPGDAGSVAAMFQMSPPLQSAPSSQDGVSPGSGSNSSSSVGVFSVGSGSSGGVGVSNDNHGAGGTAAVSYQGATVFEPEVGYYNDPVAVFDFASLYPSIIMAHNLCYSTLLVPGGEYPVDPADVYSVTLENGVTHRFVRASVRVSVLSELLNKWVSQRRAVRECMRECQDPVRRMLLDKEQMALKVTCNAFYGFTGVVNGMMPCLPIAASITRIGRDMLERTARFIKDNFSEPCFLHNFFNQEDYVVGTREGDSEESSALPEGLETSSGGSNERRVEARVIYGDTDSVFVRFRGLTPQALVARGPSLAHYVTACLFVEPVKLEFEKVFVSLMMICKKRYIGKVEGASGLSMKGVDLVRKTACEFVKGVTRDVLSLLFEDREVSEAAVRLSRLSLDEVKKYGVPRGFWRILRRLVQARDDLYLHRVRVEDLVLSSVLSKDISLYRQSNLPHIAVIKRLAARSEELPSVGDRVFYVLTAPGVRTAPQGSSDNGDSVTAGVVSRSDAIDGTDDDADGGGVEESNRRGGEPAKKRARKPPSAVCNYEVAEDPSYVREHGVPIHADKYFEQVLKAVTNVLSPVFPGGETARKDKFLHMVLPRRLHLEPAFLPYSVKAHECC
The experiment is described as follows: biochemical.
Settings: not given
Here is the method:
The HCMV polymerase assay is performed using a scintillation proximity assay (SPA) as described in several references, such as N. D. Cook, et al., Pharmaceutical Manufacturing International, pages 49-53 (1992); K. Takeuchi, Laboratory Practice, September issue (1992); U.S. Pat. No. 4,568,649 (1986); which are incorporated by reference herein. Reactions are performed in 96-well plates. The assay is conducted in 100 μl volume with 5.4 mM HEPES (pH 7.5), 11.7 mM KCl, 4.5 mM MgCl2, 0.36 mg/ml BSA, and 90 nM ^3 H-dTTP. Assays are run with and without CHAPS, (3-[(3-Cholamidopropyl)dimethylammonio]-1-propane-sulfonate) at a final concentration of 2 mM. HCMV polymerase is diluted in enzyme dilution buffer containing 50% glycerol, 250 mM NaCl, 10 mM HEPES (pH 7.5), 100 μg/ml BSA, and 0.01% sodium azide. The HCMV polymerase, which is expressed in recombinant baculovirus-infected SF-9 cells and purified according to literature procedures, is added at 10% (or 10 μl) of the final reaction volume, i.e., 100 μl. Compounds are diluted in 50% DMSO and 10 μl are added to each well. Control wells contain an equivalent concentration of DMSO. Unless noted otherwise, reactions are initiated via the addition of 6 nM biotinylated poly(dA)-oligo(dT) template/primer to reaction mixtures containing the enzyme, substrate, and compounds of interest. Plates are incubated in a 25 C. or 37 C. H2 O bath and terminated via the addition of 40 μl/reaction of 0.5 M EDTA (pH 8) per well. Reactions are terminated within the time-frame during which substrate incorporation is linear and varied depending upon the enzyme and conditions used, i.e., 30 min. for HCMV polymerase. Ten μl of streptavidin-SPA beads (20 mg/ml in PBS/10% glycerol) are added following termination of the reaction. Plates are incubated 10 min. at 37 C., then equilibrated to room temperature, and counted on a Packard Topcount. Linear regressions are performed and IC50 's are calculated using computer software.
A modified version of the above HCMV polymerase assay is performed as described above, but with the following changes: Compounds are diluted in 100% DMSO until final dilution into assay buffer. In the previous assay, compounds are diluted in 50% DMSO. 4.5 mM dithiotherotol (DTT) is added to the polymerase buffer.
`O=C(NCc1ccc(Cl)cc1)c1cn(CCCOC2CCCCO2)c2c(F)cc(CO)cc2c1=O` (stereo not shown) [Example 6, N-(4-Chlorobenzyl)-8-fluoro-6-(hydroxymethyl)-4-oxo-1-[3-(tetrahydro-2H-pyran-2-yloxy)propyl]-1,4-dihydro-3-quinolinecarboxamide]: the IC50 stood at 7.2 µM. As for `CN1CCCC1CCn1cc(C(=O)NCc2ccc(Cl)cc2)c(=O)c2cc(C#CCO)ccc21` (stereo not shown) [Example 16, N-(4-Chlorobenzyl)-1,4-dihydro-6-(3-hydroxy-1-propynyl)-1-[2-(1-methyl-2-pyrrolindinyl)ethyl]-4-oxo3-quinolinecarboxamide], half-maximal inhibition (IC50) required 2.8 µM. `O=C(NCc1ccc(Cl)cc1)c1cn(CCN2CCCC2)c2ccc(C#CCO)cc2c1=O` [Example 18, N-(4-Chlorobenzyl)-6-(3-hydroxy-1-propynyl)-1-[2-(1-pyrolidinyl)ethyl]-4-oxo-1,4-dihydro-3-quinolinecarboxamide] gave an IC50 of 2.7 µM. On to `O=C(NCc1ccc(Cl)cc1)c1cn(CCN2CCOCC2)c2ccc(C#CCO)cc2c1=O` [Example 19, N-(4-Chlorobenzyl)-6-(3-hydroxy-1-propynyl)-1-[2-(4-morpholinyl)ethyl]-4-oxo-1,4-dihydro-3-quinolinecarboxamide], for which half-maximal inhibition (IC50) required 1.8 µM.

Still in this experiment, the particulars now being: HCMV polymerase; SPA; modified assay: compounds in 100% DMSO, 4.5 mM DTT.
`CN(CCS(=O)(=O)O)C(=O)CCCCCCC(=O)OCCCc1ccc2c(c1)c(=O)c(C(=O)NCc1ccc(Cl)cc1)cn2C1CC1`: the IC50 is more than 20 µM. Consider `CC(C)n1cc(C(=O)NCc2ccc(Cl)cc2)c(=O)c2cc(C#CCO)ccc21` [Example 1, N-(4-Chlorobenzyl)-6-(3-hydroxy-1-propynyl)-1-isopropyl-4-oxo-1,4-dihydro-3-quinolinecarboxamide], for which half-maximal inhibition (IC50) required 1.7 µM. As for `CCC(C)n1cc(C(=O)NCc2ccc(Cl)cc2)c(=O)c2cc(C#CCO)ccc21` (stereo not shown) [Example 2, 1-(sec-butyl)-N-(4-chlorobenzyl)-6-(3-hydroxy-1-propynyl)-4-oxo-1,4-dihydro-3-quinolinecarboxamide], the IC50 is 1.6 µM. `CCC(C)n1cc(C(=O)NCc2ccc(Cl)cc2)c(=O)c2cc(C#CCO)cc(OC)c21` (stereo not shown) [Example 3, 1-(sec-butyl)-N-(4-chlorobenzyl)-6-(3-hydroxy-1-propynyl)-8-methoxy-4-oxo-1,4-dihydro-3-quinolinecarboxamide] yielded a half-inhibitory concentration (IC50) of 2.3 µM. On to `Cn1cc(C(=O)NCc2ccc(Cl)cc2)c(=O)c2cc(CCCO)cc(OC(CO)CO)c21` [Example 5, N-(4-Chlorobenzyl)-8-[2-hydroxy-1-(hydroxymethyl)ethoxy]-6-(3-hydroxypropyl)1-methyl-4-oxo-1,4-dihydro-3-quinolinecarboxamide], for which the IC50 came out at 1.6 µM.

`Cn1cc(C(=O)NCc2ccc(Cl)cc2)c(=O)c2cc(C#CCO)cc(F)c21` [Example 8, N-(4-Chlorobenzyl)-8-fluoro-6-(3-hydroxy-1-propynyl)-1-methyl-4-oxo-1,4-dihydro-3-quinolinecarboxamide] yielded an IC50 of 1 µM. In turn, `Cn1cc(C(=O)NCc2ccc(Cl)cc2)c(=O)c2cc(/C=C\CO)cc(F)c21` [Example 9, N-(4-Chlorobenzyl)-8-fluoro-6-[(Z)-3-hydroxy-1-propenyl)-1-methyl-4-oxo-1,4-dihydro-3-quinolinecarboxamide] yielded an IC50 of less than 0.78 µM. Molecule `CCN(CC)CCn1cc(C(=O)NCc2ccc(Cl)cc2)c(=O)c2cc(C#CCO)cc(F)c21` [Example 10, N-(4-Chlorobenzyl)-1-[2-(diethylamino)ethyl]-8-fluoro-6-(3-hydroxy-1-propynyl)-4-oxo-1,4-dihydro-3-quinolinecarboxamide] registered an IC50 of 1.7 µM. Regarding `CCCn1cc(C(=O)NCc2ccc(Cl)cc2)c(=O)c2cc(C#CCO)ccc21` [Example 11, N-(4-Chlorobenzyl)-6-(3-hydroxy-1-propynyl)-4-oxo-1-propyl-1,4-dihydro-3-quinolinecarboxamide], the IC50 worked out at 1.5 µM. This IC50 and that of the molecule before are within 1.5-fold of each other. For `CN(C)CCn1cc(C(=O)NCc2ccc(Cl)cc2)c(=O)c2cc(C#CCO)ccc21` [Example 13, N-(4-Chlorobenzyl)-1-[2-(dimethylamino)ethyl]-6-(3-hydroxy-1-propynyl)-4-oxo-1,4-dihydro-3-quinolinecarboxamide, hydrochloride salt], the IC50 amounted to 2.9 µM.

The molecule `O=C(NCc1ccc(Cl)cc1)c1cn(CCCN2CCCCC2)c2ccc(C#CCO)cc2c1=O` [Example 15, N-(4-Chlorobenzyl)-6-(3-hydroxy-1-propynyl)-1-[3-(1-piperidinyl)propyl]-4-oxo-1,4-dihydro-3-quinolinecarboxamide] registered an IC50 of 4.1 µM. The IC50 values of the last two molecules are within 1.5-fold of each other. On the same count and under the same terms, the result for `CN(C)CCCn1cc(C(=O)NCc2ccc(Cl)cc2)c(=O)c2cc(C#CCO)ccc21` [Example 20, N-(4-Chlorobenzyl)-1-[3-(dimethylamino)propyl]-6-(3-hydroxy-1-propynyl)-4-oxo-1,4-dihydro-3-quinolinecarboxamide] reads 3.8 µM; that for `C=Cn1cc(C(=O)NCc2ccc(Cl)cc2)c(=O)c2cc(C#CCO)ccc21` [Example 21, N-(4-Chlorobenzyl)-6-(3-hydroxy-1-propynyl)-4-oxo-1-vinyl-1,4-dihydro-3-quinolinecarboxamide], 1.4 µM; that for `Cn1cc(C(=O)NCc2ccc(Cl)cc2)c(=O)c2cc(/C=C/CO)ccc21` [Example 22, N-(4-chlorobenzyl)-6-[(E)-3-hydroxy-1-propenyl]-1-methyl-4-oxo-1,4-dihydro-3-quinolinecarboxamide], 0.81 µM. `Cn1cc(C(=O)NCc2ccc(Cl)cc2)c(=O)c2cc(/C=C\CO)ccc21` [Example 23, N-(4-chlorobenzyl)-6-[(Z)-3-hydroxy-1-propenyl]-1-methyl-4-oxo-1,4-dihydro-3-quinolinecarboxamide] had an IC50 of 0.62 µM. For the molecule `CCN(CCO)c1ccc2c(c1)c(=O)c(C(=O)NCc1ccc(Cl)cc1)cn2C` [Example 24, N-(4-Chlorobenzyl)-6-[ethyl(2-hydroxyethyl)amino]-1-methyl-4-oxo-1,4-dihydro-3-quinolinecarboxamide], the IC50 was 23.6 µM. For the molecule `O=C(NCc1ccc(Cl)cc1)c1cn(C2CC2)c2ccc(CN3CCOCC3)cc2c1=O` [Example 27, N-(4-Chlorobenzyl)-1-cyclopropyl-6-(4-morpholinylmethyl)-4-oxo-1,4-dihydro-3-quinolinecarboxamide], the IC50 was 0.61 µM. Turning to `CC(C)(C)OC(=O)Cn1cc(C(=O)NCc2ccc(Cl)cc2)c(=O)c2cc(C#CCO)ccc21` [Example 28, tert-Butyl 2-[3-{[(4-chlorobenzyl)amino]carbonyl}-6-(3-hydroxy-1-propynyl)-4-oxo-1(4H)-quinolinyl]acetate], the IC50 stood at 1.8 µM. Regarding `O=C(O)Cn1cc(C(=O)NCc2ccc(Cl)cc2)c(=O)c2cc(C#CCO)ccc21` [Example 29, 2-[3-{[(4-Chlorobenzyl)amino]carbonyl}-6-(3-hydroxy-1-propynyl)-4-oxo-1(4H)-quinolinyl]acetic acid], half-maximal inhibition (IC50) was put at 1 µM. The same measure, in the same setting: the result for `O=C(NCc1ccc(Cl)cc1)c1cn(CCO)c2ccc(C#CCO)cc2c1=O` [Example 30, N-(4-Chlorobenzyl)-1-(2-hydroxyethyl)-6-(3-hydroxy-1-propynyl)-4-oxo-1,4-dihydro-3-quinolinecarboxamide] reads 0.95 µM. The molecule `Cn1cc(C(=O)NCc2ccc(Cl)cc2)c(=O)c2cc(CCCOP(=O)(OC(C)(C)C)OC(C)(C)C)ccc21` [Example 32, Di(tert-butyl) 3-(3-{[(4-chlorobenzyl)amino]carbonyl}-1-methyl-4-oxo-1,4-dihydro-6-quinolinyl)propyl phosphate] showed an IC50 of 27.2 µM. Compared with the last molecule, the IC50 is about 29-fold higher. Same read-out and setting: the result for `Cn1cc(C(=O)NCc2ccc(Cl)cc2)c(=O)c2cc(CCCOP(=O)(O)O)ccc21` [Example 33, 3-(3-{[(4-Chlorobenzyl)amino]carbonyl}-1-methyl-4-oxo-1,4-dihydro-6-quinolinyl)propyl dihydrogen phosphate] reads 3.7 µM; that for `CC(C)(C)OP(=O)(OCCCc1ccc2c(c1)c(=O)c(C(=O)NCc1ccc(Cl)cc1)cn2C1CC1)OC(C)(C)C` [Example 34, Di(tert-butyl) 3-(3-{[(4-chlorobenzyl)amino]carbonyl}-1-cyclopropyl-4-oxo-1,4-dihydro-6-quinolinyl)propyl phosphate], more than 20 µM.

`CN(CCS(=O)(=O)O)C(=O)CCCCCCC(=O)OCC#Cc1ccc2c(c1)c(=O)c(C(=O)NCc1ccc(Cl)cc1)cn2C` [Example 37, Sodium 2-[(8-{[3-(3-{[(^4-chlorobenzyl)amino]carbonyl}-1-methyl-4-oxo-1,4-dihydro-6-quinolinyl)-2-propynyl]oxy}-8-oxooctanoyl)(methyl)amino]-1-ethanesulfonate] showed an IC50 of more than 20 µM.
